Test [1] addresses GPIIb/IIIa (Homo sapiens, UniProt P05106+P08514). Nature of the test: In vitro solid phase purified glycoprotein IIb/IIIa binding assay (biotinylated fibrinogen binding). The note with it: for inhibition at 50 µM: read-out: Fibrinogen Binding % Inh. (50 µM). The method, then:
IN VITRO SOLID PHASE PURIFIED GLYCOPROTEIN IIB/IIIA BINDING ASSAY.
The plate is covered and incubated overnight at 4°C. The GPIIb/IIa solution is discarded and 150 µl of 5% BSA is added and incubated at RT for 1-3 h. The plate is washed extensively with modified Tyrodes buffer. Biotinylated fibrinogen (25 µl/well) at 2 x final concentration is added to the wells that contain the test compounds (25 µl/well). The plate is covered and incubated at RT for 2-4 h. Twenty minutes prior to incubation completion, one drop of Reagent A (Vecta Stain ABC Horse Radish Peroxidase kit, Vector Laboratories, Inc.) and one drop Reagent B are added with mixing to 5 mL modified Tyrodes buffer mix and let stand. The ligand solution is discarded and the plate washed (5 x 200 µl/well) with modified Tyrodes buffer. Vecta Stain HRP-Biotin-Avidin reagent (50 µl/well, as prepared above) is added and incubated at RT for 15 min. The Vecta Stain solution is discarded and the wells washed (5 x 200 µl/well) with modified Tyrodes buffer. Developing buffer (10 mL of 50 mM citrate/phosphate buffer @ pH 5.3, 6 mg o-phenylenediamine, 6 µl 30% H2O2; 50 µl/well) is added and incubated at RT for 3-5 min, and then 2N H2SO4 (50 µl/well) is added. The absorbance is read at 490 nm.

Test [2] has as its system gel-filtered platelets. Briefly: In vitro inhibition of thrombin-induced gel-filtered platelet aggregation. The format is cell-based. The note with it: Homo sapiens; for inhibition at 50 µM: read-out: Platelet Aggregation % Inh. (50µM). The method, then:
IN VITRO INHIBITION OF THROMBIN-INDUCED GEL-FILTERED PLATELET AGGREGATION ASSAY.
The percentage of platelet aggregation is calculated as an increase in light transmission of compound-treated platelet concentrate vs. control-treated platelet concentrate. Human blood is obtained from drug free, normal donors into tubes containing 0.13M sodium citrate. Platelet rich plasma (PRP) is collected by centrifugation of whole blood at 200 x g for 10 min at 25°C. The PRP (5 mL) is gel filtered through Sepharose 2B (bed volume 50 mL), and the platelet count is adjusted to 2x10^7 platelets per sample. The following constituents are added to a siliconized cuvette: concentrated platelet filtrate and Tyrode's buffer (0.14M NaCl, 0.0027MKCl, 0.012M NaHCO3, 0.76 mM Na2HPO4, 0.0055M glucose, 2 mg/mL BSA and 5.0mM HEPES @ pH 7.4) in an amount equal to 350 µl, 50 µl of 20 mM calcium and 50 µl of the test compound. Aggregation is monitored in a BIODATA aggregometer for the 3 min following the addition of agonist (thrombin 50 µl of 1 unit/mL).

Test [3] relates to collagen- or ADP-induced ex vivo platelet aggregation. Briefly: Ex vivo dog study (platelet aggregation, hemodynamics, bleeding time, coagulation, cell counts). The test is classed as in vivo, dogs. The method, then: Adult mongrel dogs (8-13 kg) were anesthetized with sodium pentobarbital (35 mg/kg, i.v.) and artificially respired. Arterial blood pressure and heart rate were measured using a Millar catheter-tip pressure transducer inserted in a femoral artery. Another Millar transducer was placed in the left ventricle (LV) via a carotid artery to measure LV end diastolic pressure and indices of myocardial contractility. A lead II electrocardiogram was recorded from limb electrodes. Catheters were placed in a femoral artery and vein to sample blood and infuse drugs, respectively. Responses were continuously monitored using a Modular Instruments data aquisition system.
Arterial blood samples (5-9 ml) were withdrawn into tubes containing 3.8% sodium citrate to prepare platelet rich plasma (PRP) and to determine effects on coagulation parameters: prothrombin time (PT) and activated partial thromboplastin time (APTT). Separate blood samples (1.5 ml) were withdrawn in EDTA to determine hematocrit and cell counts (platelets, RBC's and white cells). Template bleeding times were obtained from the buccal surface using a symplate incision devise and Whatman filter paper.
Aggregation of PRP was performed using a BioData aggregometer. Aggregation of whole blood used a Chronolog impedance aggregometer. PT and APTT were determined on either a BioData or ACL 3000+ coagulation analyser. Cells were counted with a Sysmex K-1000.
Compounds were solubilized in a small volume of dimethylformamide (DMF) and diluted with saline to a final concentration of 10% DMF. Compounds were administered by the intravenous route with a Harvard infusion pump. Doses was administered over a 15 min interval at a constant rate of 0.33 ml/min. Data were obtained after each dose and in 30 min intervals following the end of drug administration. Oral doses were administered as aqueous solutions via syringe.

The structures appear in SMILES notation.

One may read the IC50 as the point on the concentration scale where inhibition reaches its midpoint. The low end stands for greater potency, the high end for weaker potency.

Sequence of GPIIb/IIIa (P08514 32-887 limits assumed): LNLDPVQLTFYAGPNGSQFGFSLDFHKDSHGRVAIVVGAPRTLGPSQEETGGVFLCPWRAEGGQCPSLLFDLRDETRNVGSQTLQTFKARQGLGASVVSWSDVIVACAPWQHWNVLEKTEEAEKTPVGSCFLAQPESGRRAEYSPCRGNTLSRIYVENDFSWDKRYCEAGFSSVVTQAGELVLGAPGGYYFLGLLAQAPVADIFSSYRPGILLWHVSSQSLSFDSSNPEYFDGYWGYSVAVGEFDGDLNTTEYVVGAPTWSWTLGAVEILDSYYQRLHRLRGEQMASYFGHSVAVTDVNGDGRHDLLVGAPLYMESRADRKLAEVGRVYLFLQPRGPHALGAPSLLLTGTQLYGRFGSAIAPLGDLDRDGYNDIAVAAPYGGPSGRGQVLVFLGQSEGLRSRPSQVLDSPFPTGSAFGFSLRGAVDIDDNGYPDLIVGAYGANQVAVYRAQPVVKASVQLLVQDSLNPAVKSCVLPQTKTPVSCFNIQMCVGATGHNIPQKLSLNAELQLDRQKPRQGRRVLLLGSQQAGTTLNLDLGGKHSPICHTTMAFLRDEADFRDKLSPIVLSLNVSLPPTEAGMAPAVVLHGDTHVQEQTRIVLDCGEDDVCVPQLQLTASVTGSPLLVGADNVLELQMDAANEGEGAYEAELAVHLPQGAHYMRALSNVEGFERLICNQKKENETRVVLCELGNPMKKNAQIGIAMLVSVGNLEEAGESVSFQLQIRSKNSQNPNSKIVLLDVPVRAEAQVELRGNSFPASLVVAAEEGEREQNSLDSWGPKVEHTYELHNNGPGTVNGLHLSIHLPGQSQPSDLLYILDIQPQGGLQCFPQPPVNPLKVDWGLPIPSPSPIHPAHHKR
Sequence of GPIIb/IIIa (P08514 891-1039 partner limits assumed): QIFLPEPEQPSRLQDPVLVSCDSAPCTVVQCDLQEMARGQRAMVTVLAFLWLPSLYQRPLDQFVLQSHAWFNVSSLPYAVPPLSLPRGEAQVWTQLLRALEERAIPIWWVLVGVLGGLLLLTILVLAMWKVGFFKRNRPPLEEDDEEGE
Sequence of GPIIb/IIIa (P05106 27-788): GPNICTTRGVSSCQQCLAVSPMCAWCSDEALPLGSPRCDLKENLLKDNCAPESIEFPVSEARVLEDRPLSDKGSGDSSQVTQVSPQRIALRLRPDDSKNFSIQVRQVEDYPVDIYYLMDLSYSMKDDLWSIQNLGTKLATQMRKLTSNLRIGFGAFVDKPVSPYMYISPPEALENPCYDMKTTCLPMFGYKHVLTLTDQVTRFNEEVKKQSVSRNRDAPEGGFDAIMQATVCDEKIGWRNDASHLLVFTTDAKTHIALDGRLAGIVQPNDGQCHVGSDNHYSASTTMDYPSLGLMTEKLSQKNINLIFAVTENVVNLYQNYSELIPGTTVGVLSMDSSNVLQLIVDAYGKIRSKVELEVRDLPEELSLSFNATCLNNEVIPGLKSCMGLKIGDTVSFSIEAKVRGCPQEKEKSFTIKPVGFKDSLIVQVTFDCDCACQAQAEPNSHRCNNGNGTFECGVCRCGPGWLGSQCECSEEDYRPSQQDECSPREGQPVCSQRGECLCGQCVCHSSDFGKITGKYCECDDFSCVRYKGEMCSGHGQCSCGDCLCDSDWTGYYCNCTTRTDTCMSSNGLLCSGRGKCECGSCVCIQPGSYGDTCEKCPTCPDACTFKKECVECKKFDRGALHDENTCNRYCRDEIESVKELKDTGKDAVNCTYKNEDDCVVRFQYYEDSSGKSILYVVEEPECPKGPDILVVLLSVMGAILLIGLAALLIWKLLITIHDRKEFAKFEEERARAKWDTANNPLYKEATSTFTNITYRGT

For `O=C(O)C[C@H](NC(=O)[C@@H]1CCCN(C(=O)CCC2CCNCC2)C1)c1cccnc1` [Compound 21, N-3-(4-Piperidinepropionyl)-R-(-)-nipecotyl-[(S)-3-amino-3-(3-pyridyl)] propionic acid], the inhibition at 50 µM in test [1] and in test [2] was 100% in each case. This compound returned an IC50 in test [2] of 60 nM. Besides, the “Duration of >50% inhibition of collagen- or ADP-induced ex vivo platelet aggregation” value is reported as 150 min in test [3] (intravenous dosing 0.3 mpk) and 180 min in test [3] (oral dosing 1 mpk).

In the case of `O=C(Nc1ccc2ccccc2c1)N[C@@H](CNC(=O)[C@@H]1CCCN(C(=O)CCC2CCNCC2)C1)C(=O)O` [Compound 28, N-3-(4-Piperidinepropionyl)-R-(-)nipecotyl-[(S)-2-(2-naphthylamino)carbonylamino-3-amino]propionic acid], the inhibition at 50 µM in test [1] amounted to 100%. Further, in test [2], half-maximal inhibition (IC50) required 170 nM and the inhibition at 50 µM was 100%. The “Duration of >50% inhibition of collagen-induced ex vivo platelet aggregation” value in test [3] (oral dosing 3 mpk) is 120 min.

For the compound `CC(C)(C)C#CC(CC(=O)O)NC(=O)C1CCCN(C(=O)CCC2CCNCC2)C1` (single isomer, unassigned) [Compound 19], the figures for the IC50 in test [1] and in test [2] were 21 nM and 79 nM, respectively. Moreover, the inhibition at 50 µM in test [1] stood at 99%; in test [2], 92.1%. The “Duration of >50% inhibition of collagen- or ADP-induced ex vivo platelet aggregation” value in test [3] (intravenous dosing 1 mpk) is recorded as 30 min; in test [3] (oral dosing 10 mpk), 90 min.

Regarding `O=C(O)C[C@H](NC(=O)[C@@H]1CCCN(C(=O)N2CCC(C3CCNCC3)CC2)C1)c1cccnc1` [Compound 27, N-[(4,4'-Bipiperidin-1-yl-)carbonyl]-R-(-)-nipecotyl-[(S)-3-amino-3-(3-pyridyl)] propionic acid], the inhibition at 50 µM in test [1] and in test [2] was 100% throughout. This compound displayed an IC50 in test [2] of 450 nM. Also, the “Duration of >50% inhibition of collagen-induced ex vivo platelet aggregation” value in test [3] (intravenous dosing 0.3 mpk) was 60 min; in test [3] (oral dosing 3 mpk) it was 120 min.

Turning to `O=C(NCCc1ccccc1)N[C@@H](CNC(=O)[C@@H]1CCCN(C(=O)CCC2CCNCC2)C1)C(=O)O` [Compound 30, N-3-(4-Piperidinepropionyl)-R-(-)nipecotyl-[(S)-2-(2-phenethylamino)carbonylamino-3-amino]propionic acid], the inhibition at 50 µM in test [1] and in test [2] was 100% in each case. In addition, the IC50 in test [2] was 190 nM. Further, the “Duration of >50% inhibition of collagen-induced ex vivo platelet aggregation” value in test [3] (intravenous dosing 0.3 mpk) is on record as 105 min; in test [3] (oral dosing 3 mpk), 180 min.

Consider `O=C(N[C@@H](CNC(=O)[C@@H]1CCCN(C(=O)CCC2CCNCC2)C1)C(=O)O)OCc1ccccc1` [Compound 23, N-3-(4-Piperidinepropionyl)-R-(-)nipecotyl-[(S)-2-benzyloxycarbonylamino-3-amino]propionic acid], for which the inhibition at 50 µM stood at 100% in test [1] and 97% in test [2]. Also, the IC50 in test [2] is 27 nM. Further, the “Duration of >50% inhibition of collagen-induced ex vivo platelet aggregation” value in test [3] (intravenous dosing 0.1 mpk) came out at 60 min; in test [3] (oral dosing 1 mpk), 180 min; in test [3] (oral dosing 3 mpk) it was 150 min.

Turning to `O=C(NC[C@H](NS(=O)(=O)Cc1ccccc1)C(=O)O)[C@@H]1CCCN(C(=O)CCC2CCNCC2)C1` [Compound 25, N-3-(4-Piperidinepropionyl)-R-(-)nipecotyl-[(S)-2-benzylsulfonylamino-3-amino]propionic acid], the inhibition at 50 µM in test [1] worked out at 100%; in test [2], 97%. Moreover, the midpoint of inhibition in test [2], the IC50, lay at 7 nM. The “Duration of >50% inhibition of collagen-induced ex vivo platelet aggregation” value in test [3] (intravenous dosing 0.3 mpk) amounted to 30 min; in test [3] (oral dosing 3 mpk), 60 min.

The record behind these values is patent publication EP1184374A1, “Carboxamide derivatives of pyrrolidine, piperidine and hexahydroazepine for the treatment of thrombosis disorders” (ORTHO PHARMACEUTICAL CORPORATION, priority 1996, dated 1997).
